According to the supplement of paper PMC10307832:

How the values were obtained:
Test in all cases: relative viability (nuclei count vs DMSO), 5 days (fraction); higher = more cells survive
NCI-H1651 = test system: NCI-H1651
Summary of the method: (§1)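 One day after seeding in 1536-well plates, lung cancer cell lines were dosed by pin tool. Dosing was either single-drug or a fixed anchor-drug dose plus five library-drug doses (not always all listed) in √10 steps. After 5 days, nuclei were stained in one fix-and-stain step and counted on 4× images, and relative viability is the nuclei count of treated wells over that of vehicle wells, given as the median of duplicate plates.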

CAL-12T = test system: CAL-12T
Summary of the method: as §1

NCI-H1623 = test system: NCI-H1623
Summary of the method: as §1

NCI-H1755 = test system: NCI-H1755
Summary of the method: as §1

LK-2 = test system: LK-2
Summary of the method: as §1

A-427 = test system: A-427
Summary of the method: as §1

Cc1csc(=NC2CCCCC2)n1/N=C/c1ccc(O)c(O)c1O [MIM1] + CCNC(=O)c1noc(-c2cc(C(C)C)c(O)cc2O)c1-c1ccc(CN2CCOCC2)cc1 [Luminespib] (partner 0.01 µM)
relative viability (NCI-H1651; first compound 0.2 µM): 0.876 | relative viability (NCI-H1651; first compound 0.6325 µM): 0.785 | relative viability (NCI-H1651; first compound 2 µM): 0.617 | relative viability (NCI-H1651; first compound 6.325 µM): 0.67 | relative viability (NCI-H1651; first compound 20 µM): 0.495 | relative viability (CAL-12T; first compound 0.2 µM): 0.29 | relative viability (CAL-12T; first compound 0.6325 µM): 0.542 | relative viability (CAL-12T; first compound 2 µM): 0.522 | relative viability (CAL-12T; first compound 6.325 µM): 0.281 | relative viability (CAL-12T; first compound 20 µM): 0.328 | relative viability (NCI-H1623; first compound 0.2 µM): 0.522 | relative viability (NCI-H1623; first compound 0.6325 µM): 0.472 | relative viability (NCI-H1623; first compound 2 µM): 0.437 | relative viability (NCI-H1623; first compound 6.325 µM): 0.446 | relative viability (NCI-H1623; first compound 20 µM): 0.404 | relative viability (NCI-H1755; first compound 0.2 µM): 0.455 | relative viability (NCI-H1755; first compound 0.6325 µM): 0.51 | relative viability (NCI-H1755; first compound 2 µM): 0.703 | relative viability (NCI-H1755; first compound 6.325 µM): 0.459 | relative viability (NCI-H1755; first compound 20 µM): 0.414 | relative viability (LK-2; first compound 0.2 µM): 0.16 | relative viability (LK-2; first compound 2 µM): 0.169 | relative viability (LK-2; first compound 6.325 µM): 0.195 | relative viability (LK-2; first compound 20 µM): 0.171 | relative viability (A-427; first compound 0.2 µM): 0.832 | relative viability (A-427; first compound 0.6325 µM): 1.06 | relative viability (A-427; first compound 2 µM): 0.955 | relative viability (A-427; first compound 6.325 µM): 0.747 | relative viability (A-427; first compound 20 µM): 0.267

Cc1cn(-c2cc(NC(=O)c3ccc(C)c(Nc4nccc(-c5cccnc5)n4)c3)cc(C(F)(F)F)c2)cn1 [Nilotinib] + Cc1nc(Nc2ncc(C(=O)Nc3c(C)cccc3Cl)s2)cc(N2CCN(CCO)CC2)n1 [Dasatinib] (partner 0.075 µM)
relative viability (NCI-H1651; first compound 0.001 µM): 0.426 | relative viability (NCI-H1651; first compound 0.003162 µM): 0.387 | relative viability (NCI-H1651; first compound 0.01 µM): 0.42 | relative viability (NCI-H1651; first compound 0.1 µM): 0.208 | relative viability (CAL-12T; first compound 0.001 µM): 0.376 | relative viability (CAL-12T; first compound 0.003162 µM): 0.387 | relative viability (CAL-12T; first compound 0.01 µM): 0.456 | relative viability (CAL-12T; first compound 0.03162 µM): 0.178 | relative viability (CAL-12T; first compound 0.1 µM): 0.137 | relative viability (NCI-H1623; first compound 0.001 µM): 0.597 | relative viability (NCI-H1623; first compound 0.003162 µM): 0.531 | relative viability (NCI-H1623; first compound 0.01 µM): 0.601 | relative viability (NCI-H1623; first compound 0.03162 µM): 0.508 | relative viability (NCI-H1623; first compound 0.1 µM): 0.408 | relative viability (NCI-H1755; first compound 0.001 µM): 0.376 | relative viability (NCI-H1755; first compound 0.003162 µM): 0.381 | relative viability (NCI-H1755; first compound 0.01 µM): 0.404 | relative viability (NCI-H1755; first compound 0.03162 µM): 0.276 | relative viability (NCI-H1755; first compound 0.1 µM): 0.184 | relative viability (LK-2; first compound 0.001 µM): 0.311 | relative viability (LK-2; first compound 0.003162 µM): 0.239 | relative viability (LK-2; first compound 0.01 µM): 0.294 | relative viability (LK-2; first compound 0.03162 µM): 0.247 | relative viability (LK-2; first compound 0.1 µM): 0.183 | relative viability (A-427; first compound 0.001 µM): 0.663 | relative viability (A-427; first compound 0.003162 µM): 0.728 | relative viability (A-427; first compound 0.01 µM): 0.72 | relative viability (A-427; first compound 0.03162 µM): 0.54 | relative viability (A-427; first compound 0.1 µM): 0.1

CCNC(=O)c1noc(-c2cc(C(C)C)c(O)cc2O)c1-c1ccc(CN2CCOCC2)cc1 [Luminespib] + Cc1nc(Nc2ncc(C(=O)Nc3c(C)cccc3Cl)s2)cc(N2CCN(CCO)CC2)n1 [Dasatinib] (partner 0.075 µM)
relative viability (NCI-H1651; first compound 0.002 µM): 0.352 | relative viability (NCI-H1651; first compound 0.006325 µM): 0.433 | relative viability (NCI-H1651; first compound 0.02 µM): 0.331 | relative viability (NCI-H1651; first compound 0.06325 µM): 0.132 | relative viability (NCI-H1651; first compound 0.2 µM): 0.107 | relative viability (CAL-12T; first compound 0.002 µM): 0.519 | relative viability (CAL-12T; first compound 0.006325 µM): 0.485 | relative viability (CAL-12T; first compound 0.02 µM): 0.147 | relative viability (CAL-12T; first compound 0.06325 µM): 0.0553 | relative viability (CAL-12T; first compound 0.2 µM): 0.0762 | relative viability (NCI-H1623; first compound 0.002 µM): 0.525 | relative viability (NCI-H1623; first compound 0.006325 µM): 0.384 | relative viability (NCI-H1623; first compound 0.02 µM): 0.416 | relative viability (NCI-H1623; first compound 0.06325 µM): 0.506 | relative viability (NCI-H1623; first compound 0.2 µM): 0.406 | relative viability (NCI-H1755; first compound 0.002 µM): 0.394 | relative viability (NCI-H1755; first compound 0.006325 µM): 0.472 | relative viability (NCI-H1755; first compound 0.02 µM): 0.455 | relative viability (NCI-H1755; first compound 0.06325 µM): 0.258 | relative viability (NCI-H1755; first compound 0.2 µM): 0.119 | relative viability (LK-2; first compound 0.002 µM): 0.267 | relative viability (LK-2; first compound 0.006325 µM): 0.293 | relative viability (LK-2; first compound 0.02 µM): 0.251 | relative viability (LK-2; first compound 0.06325 µM): 0.146 | relative viability (LK-2; first compound 0.2 µM): 0.128 | relative viability (A-427; first compound 0.002 µM): 0.779 | relative viability (A-427; first compound 0.006325 µM): 0.671 | relative viability (A-427; first compound 0.02 µM): 0.483 | relative viability (A-427; first compound 0.06325 µM): 0.33 | relative viability (A-427; first compound 0.2 µM): 0.128

Cc1cn(-c2cc(NC(=O)c3ccc(C)c(Nc4nccc(-c5cccnc5)n4)c3)cc(C(F)(F)F)c2)cn1 [Nilotinib] + CCNC(=O)c1noc(-c2cc(C(C)C)c(O)cc2O)c1-c1ccc(CN2CCOCC2)cc1 [Luminespib] (partner 0.01 µM)
relative viability (NCI-H1651; first compound 0.001 µM): 0.78 | relative viability (NCI-H1651; first compound 0.003162 µM): 0.912 | relative viability (NCI-H1651; first compound 0.01 µM): 0.902 | relative viability (NCI-H1651; first compound 0.03162 µM): 0.711 | relative viability (NCI-H1651; first compound 0.1 µM): 0.753 | relative viability (CAL-12T; first compound 0.001 µM): 0.66 | relative viability (CAL-12T; first compound 0.003162 µM): 0.335 | relative viability (CAL-12T; first compound 0.01 µM): 0.665 | relative viability (CAL-12T; first compound 0.03162 µM): 0.222 | relative viability (CAL-12T; first compound 0.1 µM): 0.212 | relative viability (NCI-H1623; first compound 0.001 µM): 0.43 | relative viability (NCI-H1623; first compound 0.003162 µM): 0.516 | relative viability (NCI-H1623; first compound 0.01 µM): 0.63 | relative viability (NCI-H1623; first compound 0.03162 µM): 0.498 | relative viability (NCI-H1623; first compound 0.1 µM): 0.544 | relative viability (NCI-H1755; first compound 0.001 µM): 0.651 | relative viability (NCI-H1755; first compound 0.003162 µM): 0.418 | relative viability (NCI-H1755; first compound 0.01 µM): 0.396 | relative viability (NCI-H1755; first compound 0.03162 µM): 0.632 | relative viability (NCI-H1755; first compound 0.1 µM): 0.376 | relative viability (LK-2; first compound 0.003162 µM): 0.139 | relative viability (LK-2; first compound 0.01 µM): 0.207 | relative viability (LK-2; first compound 0.03162 µM): 0.196 | relative viability (LK-2; first compound 0.1 µM): 0.182 | relative viability (A-427; first compound 0.001 µM): 0.98 | relative viability (A-427; first compound 0.003162 µM): 0.948 | relative viability (A-427; first compound 0.03162 µM): 0.724 | relative viability (A-427; first compound 0.1 µM): 0.336
